Data reported in patent publication US9938271B2, “Inhibitors of human immunodeficiency virus replication” (VIIV HEALTHCARE UK (NO. 5) LIMITED, priority 2014, dated 2018).
pEC50: −log10 of the molar value.

Tested on: NL-RLuc virus (recombinant HIV NL4-3 with Renilla Luciferase gene) in MT-2 cells
Assay: Inhibition of HIV replication (NL-RLuc luciferase reporter virus in MT-2 cells)
Type: cell-based
From the text: Inhibition of HIV Replication:
A recombinant NL-RLuc proviral clone was constructed in which a section of the nef gene from NL4-3 was replaced with the Renilla Luciferase gene. This virus is fully infectious and can undergo multiple cycles of replication in cell culture. In addition, the luciferous reporter provides a simple and easy method for quantitating the extent of virus growth and consequently, the antiviral activity of test compounds. The plasmid pNLRLuc contains the proviral NL-Rluc DNA cloned into pUC 18 at the PvuII site. The NL-RLuc virus was prepared by transfection of 293T cells with the plasmid pNLRLuc. Transfections were performed using the LipofectAMINE PLUS kit from Invitrogen (Carlsbad, Calif.) according to the manufacturer and the virus generated was titered in MT-2 cells. For susceptibility analyses, the titrated virus was used to infect MT-2 cells in the presence of compound, and after 5 days of incubation, cells were processed and quantitated for virus growth by the amount of expressed luciferase. Assay media was RPMI 1640 supplemented with 10% heat inactivated fetal bovine serum (FBS), 100 units/ml penicillin G/100 units/ml streptomycin, 10 mM HEPES buffer pH 7.55 and 2 mM L-glutamine. The results from at least 2 experiments were used to calculate the EC50 values. Luciferase was quantitated using the Dual Luciferase kit from Promega (Madison, Wis.). Susceptibility of viruses to compounds was determined by incubation in the presence of serial dilutions of the compound. The 50% effective concentration (EC50) was calculated by using the exponential form of the median effect equation where (Fa)=1/[1+(ED50/drug conc.)^m] (Johnson V A, Byington R T. Infectivity Assay. In Techniques in HIV Research. ed. Aldovini A, Walker B D. 71-76. New York: Stockton Press. 1990). Activity equal to A refers to a compound having an EC50≤100 nM, while B and C denote compounds having an EC50 between 100 nM and 1 uM (B) or >1 uM (C).

[1] = MT2, 120 h, MT-2 cells infected with NL-RLuc virus, 5 days of incubation, luciferase readout, 10% FBS

Row | Compound | pEC50 [1] | pEC50 ({})
1 | Cc1cn2cc(-c3cccc(-c4ccccc4F)c3)nc2c(-c2ccccc2F)c1[C@H](OC(C)(C)C)C(=O)O [Example 4, (2S)-2-(tert-Butoxy)-2-(2-(2′-fluoro-[1,1′-biphenyl]-3-yl)-8-(2-fluorophenyl)-6-methylimidazo[1,2-a]pyridin-7-yl)acetic acid] | 6.58 | –
2 | Cc1cn2cc(-c3cccc(-c4ccccc4F)c3)nc2c(-c2ccc3c(c2)CCCO3)c1[C@H](OC(C)(C)C)C(=O)O [Example 7, (S)-2-(tert-Butoxy)-2-(8-(chroman-6-yl)-2-(2′-fluoro[1,1′-biphenyl]-3-yl)-6-methylimidazo[1,2-a]pyridin-7-yl)acetic acid] | 7.72 | –
3 | Cc1ccccc1-c1cccc(-c2cn3cc(C)c([C@H](OC(C)(C)C)C(=O)O)c(-c4cc(F)c5c(c4C)CCCO5)c3n2)c1 (single isomer, unassigned) [Example 6] | – | 6.25
4 | Cc1cn2c(C(C)(C)C)c3nc2c(c1[C@H](OC(C)(C)C)C(=O)O)N1CCC(C)(CC1)OCCCC[C@H](C)Oc1cc(F)ccc1-c1cccc-3c1 [Example 10, (2S)-2-(tert-Butoxy)-2-[(22S)-34-tert-butyl-18-fluoro-4,22,28-trimethyl-21,27-dioxa-1,6,8-triazahexacyclo[26.2.2.1^6,9.1^10,14.0^2,7.0^15,20]tetratriaconta-2,4,7,9 (34),10(33),11,13,15,17,19-decaen-3-yl]acetic acid] | 6.83 | –
5 | Cc1ccccc1-c1cccc(-c2cn3cc(C)c([C@H](OC(C)(C)C)C(=O)O)c(-c4cc(F)c5c(c4C)CCCO5)c3n2)c1 (single isomer, unassigned) [Example 5] | – | 7.47
6 | Cc1cn2cc(-c3cccc(-c4ccc(F)cc4)c3)nc2c(-c2cc(F)c3c(c2C)CCCO3)c1[C@H](OC(C)(C)C)C(=O)O (single isomer, unassigned) [Example 1] | – | 7.80
7 | Cc1cn2cc(-c3cccc(-c4ccc(F)cc4)c3)nc2c(-c2cc(F)c3c(c2C)CCCO3)c1[C@H](OC(C)(C)C)C(=O)O (single isomer, unassigned) [Example 2] | – | 6.73
8 | Cc1cn2cc(-c3cccc(-c4ccccc4F)c3)nc2c(-c2cc(F)c3c(c2C)CCCO3)c1[C@H](OC(C)(C)C)C(=O)O [Example 3, (2S)-2-(tert-Butoxy)-2-(8-(8-fluoro-5-methylchroman-6-yl)-2-(2′-fluoro-[1,1′-biphenyl]-3-yl)-6-methylimidazo[1,2-a]pyridin-7-yl)acetic acid] | 7.96 | –
9 | Cc1cn2cc(-c3cccc(-c4ccc(F)c(F)c4F)c3)nc2c(-c2ccc3c(c2)CCCO3)c1[C@H](OC(C)(C)C)C(=O)O [Example 8, (S)-2-(tert-Butoxy)-2-(8-(chroman-6-yl)-6-methyl-2-(2′,3′,4′-trifluoro-[1,1′-biphenyl]-3-yl)imidazo[1,2-a]pyridin-7-yl)acetic acid] | 8.00 | –
10 | Cc1cn2cc3nc2c(c1[C@H](OC(C)(C)C)C(=O)O)N1CCC(C)(CC1)OCCCC[C@H](C)Oc1cc(F)ccc1-c1cccc-3c1 [Example 9, (2S)-2-(tert-Butoxy)-2-[(22S)-18-fluoro-4,22,28-trimethyl-21,27-dioxa-1,6,8-triazahexacyclo[26.2.2.1^6,9.1^10,14.0^2,7.0^15,20]tetratriaconta-2,4,7,9(34),10(33),11,13,15,17,19-decaen-3-yl]acetic acid] | 7.44 | –
